According to patent US8987193B2, “Nisin derivatives and the use thereof” (University College Cork—National University of Ireland, Cork, priority 2008, dated 2015):
“Also recorded” adds a separate entry of the source. Ends that are not written are not given here.

Experiments:
[1] = test system: Staph. aureus DPC5245; experiment: Deferred antagonism assay; assay type: cell-based; details: producing strain; diameter of zone minus 5 mm; average of duplicates; St. aureus DPC5245
Outline: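 Producer strains replicated on GM17 agar, grown overnight, then overlaid with soft agar (0.75% w/v) seeded with indicator strain. Zone size = clearing diameter minus 5 mm growth diameter, relative to NZ9800 pCI372nisA control; mean of duplicates.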

[2] = test system: L. plantarum CBC6; experiment: Deferred antagonism assay; assay type: cell-based, Lactobacillus plantarum; parameters: key: + = Enhanced bioactivity relative to control; − = Bioactivity equal to or less than control; NA = no activity evident; details: producing strain
Outline: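 L. lactis NZ9800 strains expressing nisin A hinge variants were replicated or spotted on GM17 agar, grown overnight, then overlaid with 0.75% w/v agar seeded with indicator. Zone size is the clearing diameter minus 5 mm colony growth.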

[3] = test system: Listeria innocua CLIP; experiment: Deferred antagonism assay; assay type: cell-based; parameters: key: −, no inhibition; (+), clear zone directly above the colony; +, 1-5 mm zone; ++, 6-10 mm zone; +++, <10 mm zone; details: nisin strain
Method: (§1) Deferred antagonism assays were performed by replicating strains on GM17 or GM17 x-gal agar plates and allowing them to grow overnight before overlaying with either GM17/BHI/TS/MH agar (0.75% w/v agar) seeded with the appropriate indicator strain. Zone size was calculated as the diameter of the zone of clearing minus the diameter of bacterial growth (5 mm) For higher throughput screening of N20PXX, XM21VX, XXK22T and XXX banks deferred antagonism assays were performed by replicating strains using a 96 pin replicator (Boekel) or spotting 5 μl of a fresh overnight culture on GM17 agar plates and allowing them to grow overnight. […] Additional sets of indicators were employed to further assess/reassess the bioactivity of a number of strains. […] For well-diffusion assays molten agar was cooled to 48° C. and seeded with the appropriate indicator strain. The inoculated medium was rapidly transferred into sterile Petri plates in 50 ml volumes, allowed to solidify and dried. Wells (4.6 mm in diameter) were then made in the seeded plates. Purified nisin and mutant nisins were resuspended in 0.005% acetic acid, serially diluted, 50 μl volumes were dispensed into the aforementioned wells and the plates incubated at 37° C. overnight. Bioactivity was expressed as arbitrary units/ml (AU/ml) and calculated as the reciprocal of the highest dilution that gave a definite zone multiplied by the conversion factor (i.e. 20 when 50 μl was used) (Ryan et al., 1996).

[4] = test system: Listeria monocytogenes 33008; experiment: Deferred antagonism assay; assay type: cell-based; parameters: key: −, no inhibition; (+), clear zone directly above the colony; +, 1-5 mm zone; ++, 6-10 mm zone; +++, <10 mm zone; details: nisin strain; L. monocytogenes 33008
Method: as §1

[5] = test system: Listeria monocytogenes 33015; experiment: Deferred antagonism assay; assay type: cell-based; parameters: key: −, no inhibition; (+), clear zone directly above the colony; +, 1-5 mm zone; ++, 6-10 mm zone; +++, <10 mm zone; details: nisin strain; L. monocytogenes 33015
Method: as §1

[6] = test system: Listeria monocytogenes 33028; experiment: Deferred antagonism assay; assay type: cell-based; parameters: key: −, no inhibition; (+), clear zone directly above the colony; +, 1-5 mm zone; ++, 6-10 mm zone; +++, <10 mm zone; details: nisin strain; L. monocytogenes 33028
Method: as §1

[7] = test system: Listeria monocytogenes 33068; experiment: Deferred antagonism assay; assay type: cell-based; parameters: key: −, no inhibition; (+), clear zone directly above the colony; +, 1-5 mm zone; ++, 6-10 mm zone; +++, <10 mm zone; details: nisin strain; L. monocytogenes 33068
Method: as §1

[8] = test system: Listeria monocytogenes 33083; experiment: Deferred antagonism assay; assay type: cell-based; parameters: key: −, no inhibition; (+), clear zone directly above the colony; +, 1-5 mm zone; ++, 6-10 mm zone; +++, <10 mm zone; details: nisin strain; L. monocytogenes 33083
Method: as §1

[9] = test system: Listeria monocytogenes 33115; experiment: Deferred antagonism assay; assay type: cell-based; parameters: key: −, no inhibition; (+), clear zone directly above the colony; +, 1-5 mm zone; ++, 6-10 mm zone; +++, <10 mm zone; details: nisin strain; L. monocytogenes 33115
Method: as §1

[10] = test system: Listeria monocytogenes 33226; experiment: Deferred antagonism assay; assay type: cell-based; parameters: key: −, no inhibition; (+), clear zone directly above the colony; +, 1-5 mm zone; ++, 6-10 mm zone; +++, <10 mm zone; details: nisin strain; L. monocytogenes 33226
Method: as §1

[11] = test system: Listeria monocytogenes 33233; experiment: Deferred antagonism assay; assay type: cell-based; parameters: key: −, no inhibition; (+), clear zone directly above the colony; +, 1-5 mm zone; ++, 6-10 mm zone; +++, <10 mm zone; details: nisin strain; L. monocytogenes 33233
Method: as §1

[12] = test system: Listeria monocytogenes F6854; experiment: Deferred antagonism assay; assay type: cell-based; parameters: key: −, no inhibition; (+), clear zone directly above the colony; +, 1-5 mm zone; ++, 6-10 mm zone; +++, <10 mm zone; details: nisin strain; L. monocytogenes F6854
Method: as §1

[13] = test system: Listeria monocytogenes N3008; experiment: Deferred antagonism assay; assay type: cell-based; parameters: key: −, no inhibition; (+), clear zone directly above the colony; +, 1-5 mm zone; ++, 6-10 mm zone; +++, <10 mm zone; details: nisin strain; L. monocytogenes N3008
Method: as §1

[14] = test system: Listeria monocytogenes SLCC 7194; experiment: Deferred antagonism assay; assay type: cell-based; parameters: key: −, no inhibition; (+), clear zone directly above the colony; +, 1-5 mm zone; ++, 6-10 mm zone; +++, <10 mm zone; details: nisin strain; L. monocytogenes SLCC 7194
Method: as §1

[15] = test system: indicator strains; experiment: Deferred antagonism assays, various indicator strains (summary); assay type: cell-based; details: for Strain(s) against which the derivative (producing strain) displays enhanced bioactivity: relative to nisin A-producing control, value = strains listed
Outline: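 Producer strains were replicated on GM17 or GM17 x-gal agar, grown overnight, then overlaid with GM17, BHI, TS or MH soft agar (0.75% w/v) seeded with the indicator strain. Zone size was taken as the clearing diameter minus the diameter of bacterial growth (5 mm).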

| Substance | zone size relative to that of the NZ9800 pCI372nisA control [1] [%] | Bioactivity relative to control [2] | Activity score (zone) [3] | Activity score (zone) [4] | Activity score (zone) [5] | Activity score (zone) [6] | Activity score (zone) [7] | Activity score (zone) [8] | Activity score (zone) [9] | Activity score (zone) [10] | Activity score (zone) [11] | Activity score (zone) [12] | Activity score (zone) [13] | Activity score (zone) [14] | Strain(s) against which the derivative (producing strain) displays enhanced bioactivity [15] | relative bioactivity against the indicators of Table 6 ([15]; Staph. aureus ST528, DPC5245 and Strep. agalactiae ATCC 13813 taken together) |
| --- | --- | --- | --- | --- | --- | --- | --- | --- | --- | --- | --- | --- | --- | --- | --- | --- |
| NisinA M21S (ITSISLCTPGCKTGALMGCNSKTATCHCSIHVSK; not fully specified; also: lantibiotic nisin: dehydrated residues and thioether rings not placed; UniProt P13068 24-57, looked up, variant M21S) [nisin A derivative, hinge substitution M21S] | 110 | − | + (+, 1-5 mm zone) | + (+, 1-5 mm zone) | + (+, 1-5 mm zone) | ++ (++, 6-10 mm zone) | + (+, 1-5 mm zone) | + (+, 1-5 mm zone) | (+) | + (+, 1-5 mm zone) | + (+, 1-5 mm zone) | + (+, 1-5 mm zone) | ++ (++, 6-10 mm zone) | + (+, 1-5 mm zone) | L. monocytogenes CBC2 , CBC3, Staph. aureus CBC4, C. sporogenes CBC5 and L. lactis CBC8; also recorded: L. monocytogenes CBC2 , CBC3, S. aureus CBC4, C. sporogenes CBC5, L. lactis CBC8 and an additional 23 L. monocytogenes strains and 3 L. innocua |  |
| NisinA K22A (ITSISLCTPGCKTGALMGCNMATATCHCSIHVSK; not fully specified; also: lantibiotic: lanthionine rings and dehydro residues not placed; UniProt P13068 24-57, looked up, variant K22A) [nisin A derivative, hinge substitution K22A] | 117 | − | + (+, 1-5 mm zone) | − | + (+, 1-5 mm zone) | + (+, 1-5 mm zone) | − | + (+, 1-5 mm zone) | + (+, 1-5 mm zone) | + (+, 1-5 mm zone) | + (+, 1-5 mm zone) | + (+, 1-5 mm zone) | + (+, 1-5 mm zone) | + (+, 1-5 mm zone) | L. monocytogenes K22A and L. lactis CBC8; also recorded: L. lactis CBC8 and L. monocytogenes CBC2 , and an additional 13 L. monocytogenes and 3 L. innocua; also recorded: additional 13 L. monocytogenes and 3 L. innocua, S. aureus; also recorded: ST528 and DPC5425, Strep. agalactiae ATCC 13813 |  |
| NisinA M21I (ITSISLCTPGCKTGALMGCNIKTATCHCSIHVSK; not fully specified; also: lantibiotic: lanthionine rings and dehydro residues not placed; UniProt P13068 24-57, looked up, variant M21I) [nisin A derivative, hinge substitution M21I] | 115 | − | − | − | + (+, 1-5 mm zone) | + (+, 1-5 mm zone) | − | + (+, 1-5 mm zone) | − | + (+, 1-5 mm zone) | + (+, 1-5 mm zone) | + (+, 1-5 mm zone) | + (+, 1-5 mm zone) | + (+, 1-5 mm zone) | L. momocytogenes CBC2, Staph. aureus CBC4, C. sporogenes CBC5, L. lactis CBC7 and CBC8; also recorded: L. monocytogenes CBC2, S. aureus CBC4, C. sporogenes CBC5, L. lactis CBC7 and an additional 15 L. monocytogenes and 2 L. innocua |  |
| NisinA M21G (ITSISLCTPGCKTGALMGCNGKTATCHCSIHVSK; not fully specified; also: lantibiotic: lanthionine rings and dehydro residues not placed; UniProt P13068 24-57, looked up, variant M21G) [nisin A derivative, hinge substitution M21G] | 123 | − | + (+, 1-5 mm zone) | − | − | − | − | − | − | − | − | − | − | − | L. monocytogenes CBC2, Staph. aureus CBC4 and C. sporogenes CBC5; also recorded: L. monocytogenes CBC2 , S. aureus CBC4, ST528 , and DPC5425, Strep. agalactiae ATCC 13813, C. sporogenes CBC5 + an additional 7 L. monocytogenes and 3 L. innocua | approximately 120% |
